In the supplement of paper PMC11451515:

Assays:
Settings in all cases: 48 h
NOMO1 [1] = experiment: AUC of viability dose-response curve (% viability x log10 dose units); higher = less sensitive
Procedure, shortened: (§1)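 In 1536-well plates, leukemia cells adapted to each medium (500 or 1000 cells/well) were exposed for 48 h at 37°C to library compounds in DMSO across 11 threefold doses, 47 μM down to 0.79 nM. Viability was read by CellTiter-Glo One luminescence and normalised per plate to DMSO and cell-free wells. A four-parameter log-logistic fit over log10 doses was integrated by trapezoidal rule. This yielded the area under the curve, with over-full-viability curves scaled and quality-control failures dropped.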

P12-Ichikawa [2] = experiment: as above
Procedure, shortened: as §1

SEM cells [3] = experiment: as above
Procedure, shortened: as §1

NOMO1 [4] = experiment: cell viability relative to DMSO control; higher = less cytotoxic
Procedure, shortened: (§2)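 Before seeding, each leukemia line was adapted for at least four passages in each medium. NOMO1 or SEM cells (500 cells/well) and P12-Ichikawa cells (1000 cells/well) went into 1536-well plates at 5 μl, then received library compounds in DMSO by pin dosing across 11 threefold concentrations, 47 μM to 0.79 nM. Readout was CellTiter-Glo One luminescence after 48 h at 37°C, and viability is given as a per-plate percentage of DMSO wells, with cell-free wells as background.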

P12-Ichikawa [5] = experiment: as above
Procedure, shortened: as §2

SEM cells [6] = experiment: as above
Procedure, shortened: as §2

CCOC(=O)[C@H](CCc1ccccc1)N[C@H]1CCc2ccccc2N(CC(=O)O)C1=O
AUC of viability dose-response curve
Settings | NOMO1 [1] | P12-Ichikawa [2] | SEM cells [3]
HPLM + 10% dialyzed FBS | 429 | 463 | 458
RPMI 5 mM glucose + 10% FBS | 450 | 458 | 454
RPMI 5 mM glucose + 10% dialyzed FBS | 448 | 457 | 459

COc1cc(Nc2ncc(F)c(Nc3ccc4c(n3)NC(=O)C(C)(C)O4)n2)cc(OC)c1OC
cell viability [%]
Settings | NOMO1 [4] | P12-Ichikawa [5] | SEM cells [6]
HPLM + 10% dialyzed FBS, 0.000781 µM | 93.8 | 107 | 87.1
HPLM + 10% dialyzed FBS, 0.00234 µM | 105 | 112 | 99
HPLM + 10% dialyzed FBS, 0.00702 µM | 119 | 120 | 106
HPLM + 10% dialyzed FBS, 0.0211 µM | 127 | 114 | 123
HPLM + 10% dialyzed FBS, 0.0632 µM | 139 | 122 | 106
HPLM + 10% dialyzed FBS, 0.19 µM | 138 | 118 | 103
HPLM + 10% dialyzed FBS, 0.569 µM | 120 | 129 | 95.8
HPLM + 10% dialyzed FBS, 1.71 µM | 106 | 101 | 57.7
HPLM + 10% dialyzed FBS, 5.12 µM | 53.3 | 44.8 | 6.83
HPLM + 10% dialyzed FBS, 15.4 µM | 11.4 | 4.38 | 4.48
HPLM + 10% dialyzed FBS, 46.1 µM | 6.39 | 4.34 | 4.63
RPMI 5 mM glucose + 10% FBS, 0.000781 µM | 104 | 114 | 57.5
RPMI 5 mM glucose + 10% FBS, 0.00234 µM | 111 | 107 | 73
RPMI 5 mM glucose + 10% FBS, 0.00702 µM | 118 | 126 | 70.6
RPMI 5 mM glucose + 10% FBS, 0.0211 µM | 118 | 112 | 70.4
RPMI 5 mM glucose + 10% FBS, 0.0632 µM | 125 | 119 | 68.4
RPMI 5 mM glucose + 10% FBS, 0.19 µM | 126 | 126 | 70.6
RPMI 5 mM glucose + 10% FBS, 0.569 µM | 128 | 113 | 55
RPMI 5 mM glucose + 10% FBS, 1.71 µM | 106 | 114 | 34.9
RPMI 5 mM glucose + 10% FBS, 5.12 µM | 73.9 | 62.3 | 3.27
RPMI 5 mM glucose + 10% FBS, 15.4 µM | 13.4 | 5.34 | 3.07
RPMI 5 mM glucose + 10% FBS, 46.1 µM | 7.45 | 5.36 | 3.1
RPMI 5 mM glucose + 10% dialyzed FBS, 0.000781 µM | 109 | 110 | 95
RPMI 5 mM glucose + 10% dialyzed FBS, 0.00234 µM | 99.7 | 122 | 111
RPMI 5 mM glucose + 10% dialyzed FBS, 0.00702 µM | 107 | 113 | 101
RPMI 5 mM glucose + 10% dialyzed FBS, 0.0211 µM | 106 | 122 | 95.2
RPMI 5 mM glucose + 10% dialyzed FBS, 0.0632 µM | 105 | 121 | 89.8
RPMI 5 mM glucose + 10% dialyzed FBS, 0.19 µM | 116 | 121 | 104
RPMI 5 mM glucose + 10% dialyzed FBS, 0.569 µM | 128 | 137 | 91.2
RPMI 5 mM glucose + 10% dialyzed FBS, 1.71 µM | 103 | 112 | 49.4
RPMI 5 mM glucose + 10% dialyzed FBS, 5.12 µM | 82.7 | 62.4 | 9.48
RPMI 5 mM glucose + 10% dialyzed FBS, 15.4 µM | 23.9 | 5.87 | 3.83
RPMI 5 mM glucose + 10% dialyzed FBS, 46.1 µM | 6.81 | 5.61 | 4.35

AUC of viability dose-response curve
Settings | HPLM + 10% dialyzed FBS | RPMI 5 mM glucose + 10% FBS | RPMI 5 mM glucose + 10% dialyzed FBS
NOMO1 [1] | 379 | 392 | 404
P12-Ichikawa [2] | 373 | 386 | 384

CN(C)NC(=O)CCC(=O)O
AUC of viability dose-response curve
Settings | NOMO1 [1] | P12-Ichikawa [2] | SEM cells [3]
HPLM + 10% dialyzed FBS | 464 | 464 | 468
RPMI 5 mM glucose + 10% FBS | 467 | 464 | 464
RPMI 5 mM glucose + 10% dialyzed FBS | 471 | 466 | 474
